One experiment deals with T1, TAAR13c (Danio rerio, UniProt Q5QNP2).
T1 construct: expressed in transfected cells; host or cells: HEK-293
T1 sequence (Q5QNP2 1-341): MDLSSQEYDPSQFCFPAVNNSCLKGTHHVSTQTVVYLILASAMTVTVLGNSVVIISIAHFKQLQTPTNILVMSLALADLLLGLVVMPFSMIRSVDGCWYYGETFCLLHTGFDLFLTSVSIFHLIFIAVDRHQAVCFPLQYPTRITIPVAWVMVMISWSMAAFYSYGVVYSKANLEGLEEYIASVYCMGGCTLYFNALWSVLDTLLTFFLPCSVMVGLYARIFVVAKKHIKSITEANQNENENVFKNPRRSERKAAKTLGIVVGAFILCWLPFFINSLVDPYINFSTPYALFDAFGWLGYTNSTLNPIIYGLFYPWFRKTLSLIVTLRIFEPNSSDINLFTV
Put plainly: Dual-Glo Luciferase assay, TAAR13c-expressing HEK-293 cells. The class given is cell-based, zebrafish (Danio rerio). As to the method: Human embryonic kidney (HEK)-293 cells were cultured in Dulbecco's Modified Eagles Medium (DMEM) (HyClone, USA) containing 1% penicillin, 1% streptomycin (Gibco, USA) and 10% Fetal Bovine Serum (FBS)(Gibco, USA), under the conditions of 37° C. and 5% C02. Transfection was performed by the following method using Lipofectamine® 3000. Specifically, the cells were transfected with a DNA mixture containing TAAR13c, pCRE-Luc, pSV40-RL, Gαolf, and Receptor-transporting protein 1 short (RTP1S) using Lipofectamine® 3000. The characteristics against cadaverine were confirmed using the TAAR13c produced in Example 4 by the Dual-Glo Luciferase assay system. Specifically, the transfected cells were cultured in DMEM medium (50 μL) for 30 minutes, and an odorant (25 μL) designed to the desired concentration was added thereto, and cultured for 4 hours. Then, the Dual-Glo Luciferase reagent (20 μL) was added thereto, cultured at room temperature for 10 minutes, and the firefly luciferase luminescence was measured using the luminescence plate reader. Then, the Dual-Glo Stop-n-Glo reagent (20 μL) was added to the measured sample, and the mixture was cultured at room temperature for 10 minutes, and the Renilla luciferase luminescence was measured. The measured data was analyzed using the following formula. […]

In experiment [1] the target is T2, TAAR13c-embedded nanodiscs (T13NDs) (Danio rerio, UniProt Q5QNP2).
T2 construct: His tag (from pET-DEST42) (C); made in house; host or cells: E. coli BL21 (DE3)
T2 sequence (Q5QNP2 1-341): T1 sequence (Q5QNP2 1-341)
Nature of the experiment: Real-time intrinsic tryptophan fluorescence of T13ND. The class given is binding, zebrafish (Danio rerio). The note with it: excitation 290 nm; emission 340 nm; FIG. 11. As to the method:
The intrinsic fluorescence of T13NDs was measured real time using the LS 55 luminescence spectrometer (Perkin Elmer, USA) (excitation 290 nm; emission 340 nm). The real-time measurement of intrinsic fluorescence of TAAR13c was measured at various amine concentrations of 1 mM to 10 mM.

Experiment [2] relates to HEK-293 cells transfected with a random vector (MocK). Nature of the experiment: Dual-Glo Luciferase assay, cells transfected with a random vector (MocK). The class given is cell-based, Human. The note with it: Comparative Example, FIG. 5.

Structures are written as SMILES.

`NCCCCCN` [CV, cadaverine]: on TAAR13c (FIG. 6), the “selectivity of TAAR13c response among various amines (cell-based)” value is reported as “showed a response only against CV”. Also, the “response of TAAR13c-expressing cells to CV (normalised CRE/Renilla luciferase)” value on TAAR13c (concentration-dependent treatment of CV, 4 hours, FIG. 5) is reported as “significant response”. Also, in experiment [1], the “real-time tryptophan fluorescence of T13ND with increasing concentration of CV” value is reported as “T13ND has an affinity for CV”. Further, the “response of Mock-transfected cells to CV (normalised CRE/Renilla luciferase)” value in experiment [2] was “did not show any significant response”.
